Tested on: HCT116 colorectal cancer cells
Assay: Cisplatin sensitization assay (96 h MTS cell viability);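 also: compound concentration needed to lower the IC50 of Cisplatin alone by a set fold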
Type: cell-based
Settings: Cisplatin sensitization value
Method in brief: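 HCT116 cells were dosed simultaneously with compound and cisplatin as a full matrix of 2-fold serial dilutions from 10 μM top final concentration. Incubation was 96 h at 37° C., 5% CO2, followed by 1 h with MTS reagent for the viability read-out. Sensitization values were binned into +++, ++ and + categories.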

Row | SMILES | Cisplatin Sensitization Assay
1 | Nc1nn2cc(F)cnc2c1C(=O)Nc1cncc(F)c1N1CCN([C@H]2CCOC2)CC1 [I-N-125, (S)-2-amino-6-fluoro-N-(5-fluoro-4-(4-(tetrahydrofuran-3-yl)piperazin-1-yl)pyridin-3-yl)pyrazolo[1,5-a]pyrimidine-3-carboxamide] | +++ (Compounds with a Cisplatin sensitization value of <0.02 μM are marked with “+++.”)
2 | Nc1nn2cc(F)cnc2c1C(=O)Nc1cncc(Cl)c1N1CCNCC1 [I-N-126, 2-amino-N-(5-chloro-4-(piperazin-1-yl)pyridin-3-yl)-6-fluoropyrazolo[1,5-a]pyrimidine-3-carboxamide] | +++ (Compounds with a Cisplatin sensitization value of <0.02 μM are marked with “+++.”)
3 | COCCN1CCN(c2c(F)cncc2NC(=O)c2c(N)nn3cc(F)cnc23)CC1 [I-N-127, 2-amino-6-fluoro-N-(5-fluoro-4-(4-(2-methoxyethyl)piperazin-1-yl)pyridin-3-yl)pyrazolo[1,5-a]pyrimidine-3-carboxamide] | +++ (Compounds with a Cisplatin sensitization value of <0.02 μM are marked with “+++.”)
4 | CN1CCC(C(=O)N2CCN(c3c(F)cncc3NC(=O)c3c(N)nn4cc(F)cnc34)CC2)CC1 [I-N-128, 2-amino-6-fluoro-N-(5-fluoro-4-(4-(1-methylpiperidine-4-carbonyl)piperazin-1-yl)pyridin-3-yl)pyrazolo[1,5-a]pyrimidine-3-carboxamide] | +++ (Compounds with a Cisplatin sensitization value of <0.02 μM are marked with “+++.”)
5 | Nc1nn2cc(F)cnc2c1C(=O)Nc1cncc(F)c1N1CCN(C(=O)C2CN3CCC2CC3)CC1 (centres unmarked) [I-N-130, 2-amino-6-fluoro-N-(5-fluoro-4-(4-(quinuclidine-3-carbonyl)piperazin-1-yl)pyridin-3-yl)pyrazolo[1,5-a]pyrimidine-3-carboxamide] | ++ (Compounds with a Cisplatin sensitization value >0.02 μM but <0.2 μM are marked with “++.”)
6 | CN1CC[C@@H](OC2CCN(c3ccncc3NC(=O)c3c(N)nn4cc(F)cnc34)CC2)C1 [I-N-131] | +++ (Compounds with a Cisplatin sensitization value of <0.02 μM are marked with “+++.”)
7 | CN1CC[C@@H](OC2CCN(c3c(F)cncc3NC(=O)c3c(N)nn4cc(F)cnc34)CC2)C1 [I-N-132, (R)-2-amino-6-fluoro-N-(5-fluoro-4-(4-((1-methylpyrrolidin-3-yl)oxy)piperidin-1-yl)pyridin-3-yl)pyrazolo[1,5-a]pyrimidine-3-carboxamide] | +++ (Compounds with a Cisplatin sensitization value of <0.02 μM are marked with “+++.”)
8 | CN1CCN(c2ccncc2NC(=O)c2c(N)nn3cc(F)cnc23)CC12CCOCC2 [I-N-133, 2-amino-6-fluoro-N-(4-(1-methyl-9-oxa-1,4-diazaspiro[5.5]undecan-4-yl)pyridin-3-yl)pyrazolo[1,5-a]pyrimidine-3-carboxamide] | ++ (Compounds with a Cisplatin sensitization value >0.02 μM but <0.2 μM are marked with “++.”)
9 | Nc1nn2cc(F)cnc2c1C(=O)Nc1cncc(F)c1N1CCN(C(=O)C23CCN(CC2)CC3)CC1 [I-N-134, 2-amino-6-fluoro-N-(5-fluoro-4-(4-(quinuclidine-4-carbonyl)piperazin-1-yl)pyridin-3-yl)pyrazolo[1,5-a]pyrimidine-3-carboxamide] | + (Compounds with a Cisplatin sensitization value >0.2 μM but <5 μM are marked with “+.”)
10 | Nc1nn2cc(F)cnc2c1C(=O)Nc1cncc(F)c1N1CCN2CCOC[C@H]2C1 [I-N-135, (R)-2-amino-6-fluoro-N-(5-fluoro-4-(hexahydropyrazino[2,1-c][1,4]oxazin-8(1H)-yl)pyridin-3-yl)pyrazolo[1,5-a]pyrimidine-3-carboxamide] | +++ (Compounds with a Cisplatin sensitization value of <0.02 μM are marked with “+++.”)
11 | Nc1nn2cc(F)cnc2c1C(=O)Nc1cnccc1N1CCN2C(=O)COCC2C1 (centres unmarked) [I-N-136, 2-amino-6-fluoro-N-(4-(4-oxohexahydropyrazino[2,1-c][1,4]oxazin-8(1H)-yl)pyridin-3-yl)pyrazolo[1,5-a]pyrimidine-3-carboxamide] | ++ (Compounds with a Cisplatin sensitization value >0.02 μM but <0.2 μM are marked with “++.”)
12 | Nc1nn2cc(F)cnc2c1C(=O)Nc1cncc(F)c1N1CCN2CCOC[C@@H]2C1 [I-N-137, (S)-2-amino-6-fluoro-N-(5-fluoro-4-(hexahydropyrazino[2,1-c][1,4]oxazin-8(1H)-yl)pyridin-3-yl)pyrazolo[1,5-a]pyrimidine-3-carboxamide] | ++ (Compounds with a Cisplatin sensitization value >0.02 μM but <0.2 μM are marked with “++.”)
13 | CN1CCN(c2c(F)cncc2NC(=O)c2c(N)nn3cc(C(C)(C)C#N)cnc23)CC1 [I-N-138, 2-amino-6-(2-cyanopropan-2-yl)-N-(5-fluoro-4-(4-methylpiperazin-1-yl)pyridin-3-yl)pyrazolo[1,5-a]pyrimidine-3-carboxamide] | ++ (Compounds with a Cisplatin sensitization value >0.02 μM but <0.2 μM are marked with “++.”)
14 | CC(C)(O)CN1CCN(c2c(F)cncc2NC(=O)c2c(N)nn3cc(F)cnc23)CC1 [I-N-139, 2-amino-6-fluoro-N-(5-fluoro-4-(4-(2-hydroxy-2-methylpropyl)piperazin-1-yl)pyridin-3-yl)pyrazolo[1,5-a]pyrimidine-3-carboxamide] | +++ (Compounds with a Cisplatin sensitization value of <0.02 μM are marked with “+++.”)
15 | CN1CCN(C(=O)N2CCN(c3c(F)cncc3NC(=O)c3c(N)nn4cc(F)cnc34)CC2)CC1 [I-N-140, 2-amino-6-fluoro-N-(5-fluoro-4-(4-(4-methylpiperazine-1-carbonyl)piperazin-1-yl)pyridin-3-yl)pyrazolo[1,5-a]pyrimidine-3-carboxamide] | +++ (Compounds with a Cisplatin sensitization value of <0.02 μM are marked with “+++.”)
16 | Nc1nn2cc(F)cnc2c1C(=O)Nc1cnccc1N1CCOCC1 [I-N-141, 2-amino-6-fluoro-N-(4-morpholinopyridin-3-yl)pyrazolo[1,5-a]pyrimidine-3-carboxamide] | +++ (Compounds with a Cisplatin sensitization value of <0.02 μM are marked with “+++.”)
17 | CC(C)(C#N)c1cnc2c(C(=O)Nc3cnccc3N3CCN(C4COC4)CC3)c(N)nn2c1 [I-N-142, 2-amino-6-(2-cyanopropan-2-yl)-N-(4-(4-(oxetan-3-yl)piperazin-1-yl)pyridin-3-yl)pyrazolo[1,5-a]pyrimidine-3-carboxamide] | ++ (Compounds with a Cisplatin sensitization value >0.02 μM but <0.2 μM are marked with “++.”)
18 | CC(C#N)c1cnc2c(C(=O)Nc3cnccc3N3CCN(C4COC4)CC3)c(N)nn2c1 (centres unmarked) [I-N-143, 2-amino-6-(1-cyanoethyl)-N-(4-(4-(oxetan-3-yl)piperazin-1-yl)pyridin-3-yl)pyrazolo[1,5-a]pyrimidine-3-carboxamide] | ++ (Compounds with a Cisplatin sensitization value >0.02 μM but <0.2 μM are marked with “++.”)
19 | CC(C)(C#N)c1cnc2c(C(=O)Nc3cncc(F)c3N3CCN(C4COC4)CC3)c(N)nn2c1 [I-N-144] | +++ (Compounds with a Cisplatin sensitization value of <0.02 μM are marked with “+++.”)
20 | CN(C)S(=O)(=O)C1CCN(c2c(F)cncc2NC(=O)c2c(N)nn3cc(F)cnc23)CC1 [I-N-146, 2-amino-N-(4-(4-(N,N-dimethylsulfamoyl)piperidin-1-yl)-5-fluoropyridin-3-yl)-6-fluoropyrazolo[1,5-a]pyrimidine-3-carboxamide] | +++ (Compounds with a Cisplatin sensitization value of <0.02 μM are marked with “+++.”)
21 | Nc1nn2cc(F)cnc2c1C(=O)Nc1cncc(F)c1N1CCC(N2CCCC2=O)CC1 [I-N-147, 2-amino-6-fluoro-N-(5-fluoro-4-(4-(2-oxopyrrolidin-1-yl)piperidin-1-yl)pyridin-3-yl)pyrazolo[1,5-a]pyrimidine-3-carboxamide] | +++ (Compounds with a Cisplatin sensitization value of <0.02 μM are marked with “+++.”)
22 | CN1CCC(N(C)S(=O)(=O)C2CCN(c3c(F)cncc3NC(=O)c3c(N)nn4cc(F)cnc34)CC2)CC1 [I-N-148, 2-amino-6-fluoro-N-(5-fluoro-4-(4-(N-methyl-N-(1-methylpiperidin-4-yl)sulfamoyl)piperidin-1-yl)pyridin-3-yl)pyrazolo[1,5-a]pyrimidine-3-carboxamide] | +++ (Compounds with a Cisplatin sensitization value of <0.02 μM are marked with “+++.”)
23 | Nc1nn2cc(F)cnc2c1C(=O)Nc1cncc(F)c1N1CCC(CN2CCOCC2)CC1 [I-N-149, 2-amino-6-fluoro-N-(5-fluoro-4-(4-(morpholinomethyl)piperidin-1-yl)pyridin-3-yl)pyrazolo[1,5-a]pyrimidine-3-carboxamide] | +++ (Compounds with a Cisplatin sensitization value of <0.02 μM are marked with “+++.”)
24 | CN1CCN(CC2CCN(c3c(F)cncc3NC(=O)c3c(N)nn4cc(F)cnc34)CC2)CC1 [I-N-150, 2-amino-6-fluoro-N-(5-fluoro-4-(4-((4-methylpiperazin-1-yl)methyl)piperidin-1-yl)pyridin-3-yl)pyrazolo[1,5-a]pyrimidine-3-carboxamide] | +++ (Compounds with a Cisplatin sensitization value of <0.02 μM are marked with “+++.”)
25 | CN1CCN(C2CCN(c3c(F)cncc3NC(=O)c3c(N)nn4cc(F)cnc34)CC2)C(=O)C1 [I-N-151, 2-amino-6-fluoro-N-(5-fluoro-4-(4-(4-methyl-2-oxopiperazin-1-yl)piperidin-1-yl)pyridin-3-yl)pyrazolo[1,5-a]pyrimidine-3-carboxamide] | + (Compounds with a Cisplatin sensitization value >0.2 μM but <5 μM are marked with “+.”)
26 | Nc1nn2cc(F)cnc2c1C(=O)Nc1cnccc1N1CCCCC1 [I-N-152, 2-amino-6-fluoro-N-(4-(piperidin-1-yl)pyridin-3-yl)pyrazolo[1,5-a]pyrimidine-3-carboxamide] | +++ (Compounds with a Cisplatin sensitization value of <0.02 μM are marked with “+++.”)

Reference: patent US11117900B2 (Vertex Pharmaceuticals Incorporated, priority 2012, dated 2021)
